From patent US12691124B2, “Methods of controlling and improving brain health” (ICAHN SCHOOL OF MEDICINE AT MOUNT SINAI, priority 2019, dated 2026)

Legend:
primary cortical neurons = assay: Autophagy, protein content and cell size in neurons (LC3II/LC3I, BCA, Map2+ area); format: cell-based, mouse
Description: Immunoblotting. Mice were anesthetized with CO2 followed by decapitation, and the region of interest was rapidly dissected and frozen in liquid nitrogen and stored at −80° C. until further processing. Samples were sonicated at 4° C. in 1% SDS solution supplemented with protease, Trichostatin A (500 ng/ml) and PhosStop phosphatase inhibitor (Roche, Switzerland), and boiled for ten minutes. The protein concentration was determined using a BCA protein assay kit (ThermoFisherScientific, USA) according to the manufacturer's instructions. Protein samples were diluted in equal volume of 2×LDS sample buffer (Invitrogen) and supplemented with DTT to a final concentration of 200 mM (Sigma).
Because autophagy increases lipid species which are mostly non-polar, they are not detected in the polar metabolite data. However, if autophagy is, in fact, activated after BET inhibition, the neurons would be smaller and possibly contain less protein. Indeed, total protein content is decreased by 13% as measured by the BCA assay after one week of BET inhibition (FIG. 13C). […] Moreover, BET inhibition causes an almost three-fold increase in autophagy as measured by the ratio of LC3II to LC3I, a common autophagic marker (FIG. 13D).
Primary cortical neurons treated with IBET858 for 1 week have decreased glycolysis and amino acid metabolites (FIG. 21A). […] A summary of gene expression and metabolite data highlighting downregulation of solute carriers and metabolites that support anabolic and oxidative metabolic programs and an upregulation of neuroprotective metabolites and programs, such as autophagy (FIG. 21C). The glycolytic capacity of primary cortical neurons treated with acute (24 hour) or chronic (1 week) of IBET858 (FIGS. 21D-21H). IBET treated neurons was evaluated using the Seahorse assay. […] Further, the neurons display a decrease in glycolytic capacity as measured by the extracellular acidification rate (ECAR) (FIG. 21H). 1 week of IBET858 treatment increases autophagy as measured by an increase in the LC3 II/I ratio and a decrease in overall protein content by BCA assay (FIGS. 21I and 21J). CAG-RFP-EGFP-Map1lc3b mice expressing the LC3 protein together with RFP and a pH-dependent eGFP were used to evaluate the number of autophagic vesicles by immunofluorescence (FIGS. 21K and 21L). […] Frequency distribution of autophagic vesicles after 24 hours (left) or 1 week (right) treatment with IBET858 (FIG. 21L).

microglia in vivo = assay: TRAP of microglia from striatum and cerebellum after chronic IBET858; design: species or system mouse; conditions: 30 mg/kg i.p. once daily, two weeks
Description: Cx3Cr1^CreErt2/+; Efl10a mice were orally gavaged 5 times with tamoxifen to induce the expression of gfp-labelled ribosome. Mice were intraperitoneally injected with IBET858 (30 mg/kg) or vehicle control once daily for two weeks. Four hours after either an acute (1 injection) or chronic (2 weeks) injection, mice were decapitated and used for TRAP.
To better understand how IBET858 affects microglia in their homeostatic state, translating ribosome affinity purification (TRAP) after chronic IBET858 administration was used. TRAP is ideal because it prevents the induction of immediate early and pro-inflammatory genes caused by other isolation protocols which can occlude homeostatic transcriptional profiles. Ayata et al., “Epigenetic Regulation of Brain Region-Specific Microglia Clearance Activity,” Nature Neuroscience 21:1049-1060 (2018), which is hereby incorporated by reference in its entirety. As observed in vitro, microglial lineage is maintained after chronic BET inhibition IBET858 as indicated by expression of Hexb, Fcrls, and Fcer1g in either the striatum or cerebellum (FIG. 4B). […] This is especially important because loss of these region-specific gene expression signatures is highly detrimental to brain function. Ayata et al., “Epigenetic Regulation of Brain Region-Specific Microglia Clearance Activity,” Nature Neuroscience 21:1049-1060 (2018), which is hereby incorporated by reference in its entirety. […] Therefore it is likely that BET inhibition can prevent or modulate pathological microglial activation in vivo as occurs during neurodegeneration.

wild-type mice = assay: Classic fear conditioning in wild-type mice; format: in vivo, mouse; conditions: five weeks of daily IBET858 injections
Description: […] Albans, VT) as described previously (Schaefer et al., “Control of Cognition and Adaptive Behavior by the GLP/G9a Epigenetic Suppressor Complex,” Neuron 64:678-691 (2009), which is hereby incorporated by reference in its entirety). Briefly, a mouse was placed in the test chamber (house lights on) and allowed to explore freely for 2 min. A white noise (80 dB) was then presented for 30 s, co-terminating with a mild foot shock (2 s, 0.5 mA). Two minutes later the same sequence of auditory cue-shock pairing was repeated. The mouse was removed from the chamber 30 s later and returned to its home cage. Freezing behavior was continuously recorded during the time spent in the test chamber. […] Twenty-four hours later, the mouse was placed back into the test chamber for 5 min and freezing behavior was recorded (context test). Two hours later, the mouse was tested for freezing in response to the auditory cue. Environmental and contextual cues were changed for the auditory cue test. The auditory cue test was divided into two phases: 3 min in the absence of the auditory cue and 3 min of the auditory cue. The time freezing during each test was converted to a percentage of freezing value.
To understand if these cellular and molecular improvements impact behavior, memory was assessed using the classic fear conditioning paradigm.

CC(=O)N1c2ccc(-c3ccc(CN4CCCCC4)cc3)cc2[C@H](Nc2ccccc2)CC1C (stereo in doubt) [IBET858]
decrease in somatic area (Map2+ area) (primary cortical neurons): 25%
autophagic vesicles (CAG-RFP-EGFP-Map1lc3b neurons) (primary cortical neurons; 1 w): an increase in autophagic vesicles
increase in autophagy, ratio of LC3II to LC3I (primary cortical neurons; 1 week): three
decrease in total protein content, BCA assay (primary cortical neurons; one week of BET inhibition): 13%
microglial lineage (Hexb, Fcrls, Fcer1g expression) in striatum or cerebellum (microglia in vivo): maintained
regional microglial transcriptomic heterogeneity (microglia in vivo): also unaffected
striatal microglial inflammatory genes (Ccr5, Cd180, Gpr84, Wdfy1) (microglia in vivo): suppressed
contextual recall (wild-type mice): significantly increased
